{
  "source": "patent US7445892B2",
  "about": "“Method of testing anticancer agent-sensitivity of tumor cells” (Eisai Co., Ltd., priority 2000, dated 2008)",
  "system": "HCT116-C9",
  "assay": "Gene expression analysis using DNA microarray (GeneChip Hu6800)",
  "format": "cell-based, human",
  "conditions": "HCT116-C9, 8 μM, 12 hours, compared with cells without drug; change of 1.8 times or more counted",
  "experimental": "All cells were cultured in RPMI-1640 medium supplemented with 10% of fetal bovine serum, 100 units/ml of penicillin and 100 μg/ml of streptomycin at 37° C. under 5% CO2.\nE7070, or ER-35748 or ER-68487 represented by the structural formula shown below was added to the media of an E7070-susceptible strain HCT116-C9 and an E7070-resistant strain HCT116-C9-C1 at a concentration of 8 μM and the cells were cultured. Then, cells were recovered after 0, 3, 6 and 12 hours. Further, the cells were also cultured for 12 hours without adding the drug and recovered.\nTotal RNA was extracted from these cells and subjected to the subsequent analyses. The RNA extracted from the cells cultured for 12 hours with the drug and the RNA from extracted the cells cultured for 12 hours without the drug were used for the gene expression analysis using a DNA microarray described in Example 2. HCT116-C9 was a substrain isolated from HCT116 derived from human colon cancer (American Type Culture Collection, Manassas, Va., U.S.A.), and HCT116-C9-C1 was an E7070-resistant substrain obtained by culturing this HCT116-C9 in the presence of E7070 with gradually increasing the E7070 concentration.\nTotal RNA was extracted from the recovered cells by using TRIZOL Reagent (Life Technologies Oriental) according to the attached operation manual.\nEach RNA obtained in Example 1 was dissolved in 100 μl of sterilized water treated with diethyl pyrocarbonate (DEPC) and further purified by using RNeasy Column (QIAGEN), and double-stranded cDNA was synthesized by using SuperScript Choice System (Life Technologies Oriental) and a T7-d(T)24 primer.\nFirst, to 10 μg of RNA, 5 μM T7-d(T)24 primer, 1×First strand buffer, 10 mM DTT, 500 μM dNTP mix and 20 units/μl of SuperScript II Reverse Transcriptase were added and the mixture was allowed to react at 42° C. for 1 hour to synthesize single-stranded DNA. Subsequently, to the DNA, 1×Second strand buffer, 200 μM dNTP mix, 67 U/ml of DNA ligase, 270 U/ml of DNA polymerase I and 13 U/ml of RNase H were added and the mixture was allowed to react at 16° C. for 2 hours to synthesize double-stranded cDNA. Further, to the cDNA, 67 U/ml of T4 DNA polymerase I was added and the mixture was allowed to react at 16° C. for 5 minutes and then 10 μl of 0.5 M EDTA was added to terminate the reaction.\nThe obtained cDNA was purified with phenol/chloroform, and a labeling reaction with biotinylated UTP and CTP was carried out by using RNA Transcript Labeling Kit (Enzo Diagnostics) according to the attached operation manual. The reaction product was purified with Rneasy Column and heated in 200 mM Tris/acetate buffer (pH 8.1), 150 mM magnesium acetate, 50 mM potassium acetate at 94° C. for 35 minutes to obtain fragment cRNA.\nThe fragmented cRNA was hybridized with GeneChip Hu6800 (Affymetrix) in 100 mM MES, 1 M sodium salt, 20 mM EDTA and 0.01% Tween 20 at 45° C. for 16 hours. After the hybridization, the GeneChip was washed and stained according to the protocol EukGE-WS2 attached to Affymetrix Fluidics Station. For the staining, streptavidin-phycoerythrin and biotinylated goat anti-streptavidin antibody were used. The stained GeneChip was scanned by using HP Argon Ion Laser Confocal Scanner (Hewlett Packard) to measure its fluorescence intensity. The fluorescence was measured at 570 nm by using an excitation light at 488 nm.\nThe quantitative data analyses were all conducted by using GeneChip Software (Affymetrix). To quantify RNA, an average of “differences [(Perfect match hybridization signal)−(Mismatch signal)]” was obtained for each probe family.\nE7070, or ER-35748 or ER-68487 was added to a medium for HCT116-C9 at a concentration of 8 μM and culture was performed. The results of analysis of RNA extracted from the cells at 12 hours by using GeneChip were compared with the results of RNA analysis for HCT116-C9 cells obtained in the same manner except for not adding the drug. […]",
  "data": [
    {"smiles": "N#Cc1ccc(S(=O)(=O)Nc2cccc3c(C#N)c[nH]c23)cc1", "note": "[ER-68487]", "values": [
      {"measurement": "expression levels of the genes listed in Table 1", "result": "increased"},
      {"measurement": "expression levels of the genes listed in Table 2", "result": "decreased"}
    ]},
    {"smiles": "N#Cc1ccc(S(=O)(=O)Nc2cccc3c(Cl)c[nH]c23)cc1", "note": "[ER-35748]", "values": [
      {"measurement": "expression levels of the genes listed in Table 1", "result": "increased"},
      {"measurement": "expression levels of the genes listed in Table 2", "result": "decreased"}
    ]}
  ]
}
